Tested on: anesthetized rats
Test: Blood pressure and heart rate of anesthetized rats (Example 12)
Assay type: in vivo, wistar rats
Protocol: Forty male wistar rats with the body weight ranging from 220-240 g were used in the study. Pharmaceuticals: compound (2) and Sildenafil, which were ground and then suspended with 1% of sodium carboxymethyl cellulose. Apparatus: RM-6000 eight-graph system (NIHON KOHDEN, Japan). The doses for administration and the division of the groups: solvent control group (abbreviated as the control group), 20 mg/kg of compound (2), 40 mg/kg of compound (2), 80 mg/kg of compound (2), and 50 mg/kg of Sildenafil. The administration route is through dodecadactylon. Methods: the male wistar rats were taken out and anesthetized with 35 mg/kg of sodium pentobarbital by injecting into the abdominal cavity, on the basis of their body weight. The rats were fixed on the operation table and were performed with the dissection operation of right carotid artery. The catheter with an external diameter of 1 mm was inserted into the right carotid artery. The blood pressure was measured and the electrodes positioned on the skin of the four limbs were used to record the electrocardiogram limb lead II. The catheter with an external diameter of 2 mm was inserted into the dodecadactylon via incision of the epigastric region, for the administration of the pharmaceuticals. RM-6000 eight-graph system (NIHON KOHDEN, Japan) was employed to record. Observation time: the value before administration, the values at 15, 30, 60, 120 and 180 min after the administration.

[1] = 20 mg/kg through dodecadactylon, at 15 min after administration
[2] = 20 mg/kg through dodecadactylon, at 30 min after administration
[3] = 20 mg/kg through dodecadactylon, at 60 min after administration
[4] = 20 mg/kg through dodecadactylon, at 120 min after administration
[5] = 20 mg/kg through dodecadactylon, value before administration
[6] = 40 mg/kg through dodecadactylon, at 15 min after administration
[7] = 40 mg/kg through dodecadactylon, at 30 min after administration
[8] = 40 mg/kg through dodecadactylon, at 60 min after administration
[9] = 40 mg/kg through dodecadactylon, at 120 min after administration
[10] = 40 mg/kg through dodecadactylon, value before administration
[11] = 80 mg/kg through dodecadactylon, at 15 min after administration
[12] = 80 mg/kg through dodecadactylon, at 30 min after administration
[13] = 80 mg/kg through dodecadactylon, at 60 min after administration
[14] = 80 mg/kg through dodecadactylon, at 120 min after administration
[15] = 80 mg/kg through dodecadactylon, value before administration
[16] = 20, 40 and 80 mg/kg through dodecadactylon

CCCc1nn(C)c2c(=S)[nH]c(-c3cc(S(=O)(=O)N4C[C@@H](C)N[C@@H](C)C4)ccc3OCC)nc12 [Compound (2), 5-[2-ethoxy-5-(cis-3,5-dimethylpiperazin-1-sulfonyl)phenyl]-1-methyl-3-n-propyl-1,6-dihydro-7H-pyrazolo[4,3-d]pyrimidin-7-thione] gave a Heart rate [1] of 440 ± 29.7 times/min, a Systolic pressure [1] of 132 ± 29.5 mmHg and a diastolic pressure [1] of 108 ± 29.7 mmHg. For the same molecule, the Heart rate [2] was 440 ± 29.6 times/min, the Systolic pressure [2] was 134 ± 29.6 mmHg and the diastolic pressure [2] was 104 ± 29.6 mmHg. It also gave a Heart rate [3] of 436 ± 22.9 times/min, a Systolic pressure [3] of 128 ± 22.9 mmHg and a diastolic pressure [3] of 101 ± 22.9 mmHg. It also gave a Heart rate [4] of 428 ± 22.6 times/min, a Systolic pressure [4] of 127 ± 22.6 mmHg and a diastolic pressure [4] of 102 ± 22.6 mmHg. It also gave a Heart rate (20 mg/kg through dodecadactylon, before administration) of 445 ± 25.1 times/min, a Systolic pressure [5] of 134 ± 7.2 mmHg and a diastolic pressure [5] of 109 ± 14.1 mmHg. It also gave a Heart rate [6] of 422 ± 29.7 times/min, a Systolic pressure [6] of 130 ± 29.7 mmHg and a diastolic pressure [6] of 109 ± 29.7 mmHg. The Heart rate [7] was 427 ± 29.6 times/min, the Systolic pressure [7] was 134 ± 29.6 mmHg and the diastolic pressure [7] was 109 ± 29.6 mmHg. The Heart rate [8] was 425 ± 22.9 times/min, the Systolic pressure [8] was 122 ± 22.9 mmHg and the diastolic pressure [8] was 109 ± 22.9 mmHg. For the same molecule, the Heart rate [9] was 424 ± 22.6 times/min, the Systolic pressure [9] was 133 ± 22.6 mmHg and the diastolic pressure [9] was 112 ± 22.6 mmHg. The Heart rate (40 mg/kg through dodecadactylon, before administration) was 429 ± 42.8 times/min, the Systolic pressure [10] was 129 ± 13.6 mmHg and the diastolic pressure [10] was 109 ± 14.4 mmHg. For the same molecule, the Heart rate [11] was 439 ± 29.7 times/min, the Systolic pressure [11] was 121 ± 29.7 mmHg and the diastolic pressure [11] was 102 ± 29.7 mmHg. For the same molecule, the Heart rate [12] was 442 ± 29.6 times/min, the Systolic pressure [12] was 123 ± 29.6 mmHg and the diastolic pressure [12] was 97 ± 29.6 mmHg. The Heart rate [13] was 436 ± 22.8 times/min, the Systolic pressure [13] was 121 ± 22.9 mmHg and the diastolic pressure [13] was 96 ± 22.9 mmHg. The Heart rate [14] was 438 ± 22.6 times/min, the Systolic pressure [14] was 119 ± 22.6 mmHg and the diastolic pressure [14] was 94 ± 22.6 mmHg. It also gave a Heart rate (80 mg/kg through dodecadactylon, before administration) of 439 ± 22.6 times/min, a Systolic pressure [15] of 126 ± 12.1 mmHg and a diastolic pressure [15] of 102 ± 12.0 mmHg. The “effect on the heart rate (in words)” value [16] was “did not exhibit an evident effect” and the “effect on the systolic pressure and diastolic pressure (in words)” value [16] was “did not exhibit an evident effect”.

Reference: US20070219220A1, “Pyrazolopyrimidinethione Derivatives, Salts and Solvates Thereof, Preparation Methods and Use Thereof” (priority 2003, published 2007)
